Measured values reported in the supplement of paper PMC10307832.

What follows are cell lines tested with C1CC(C2=C(C1)C3=C(N2)C=CC(=C3)Cl)C(=O)N [Selisistat] + Cc1nc(NC(=O)N2CCC[C@H]2C(N)=O)sc1-c1ccnc(C(C)(C)C(F)(F)F)c1 [Alpelisib] (partner 2 µM) (assay: relative viability (nuclei count vs DMSO), 5 days (fraction); higher = more cells survive). Settings: first compound 0.4 µM.
In short: (§1)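 Medians of duplicate plates are given as relative viability. That measure is the nuclei count in treated wells divided by the count in vehicle wells. Counts were taken on 4× images of lung cancer cell lines in 1536-well plates, 5 days after pin-tool dosing the day after seeding with one drug alone or a fixed anchor-drug dose plus five library-drug doses (not always all listed) in √10 steps.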
With NCI-H1975 the relative viability was 0.656. With RERF-LC-KJ the relative viability was 0.853. With NCI-H358 the relative viability was 0.865. Work on NCI-H650 yielded a relative viability of 1.38. Work on PC-3 [JPC-3] yielded a relative viability of 1.08.

Same assay, conditions: first compound 1.265 µM
With NCI-H1975 the relative viability was 0.553. RERF-LC-KJ showed a relative viability of 0.754. Cell Line NCI-H358 has a relative viability of 0.942. Work on PC-3 [JPC-3] yielded a relative viability of 0.973.

Same assay, conditions: first compound 4 µM
With NCI-H1975 the relative viability was 0.588. With RERF-LC-KJ the relative viability was 0.632. Cell Line NCI-H650 has a relative viability of 1.47. With PC-3 [JPC-3] the relative viability was 1.05.

Same assay, conditions: first compound 12.65 µM
NCI-H1975 showed a relative viability of 0.604. In the case of RERF-LC-KJ, the relative viability is reported as 0.789. NCI-H358 gave a relative viability of 0.932. NCI-H650 gave a relative viability of 1.06. For PC-3 [JPC-3], the relative viability was 1.02.

Same assay, conditions: first compound 40 µM
Work on NCI-H1975 yielded a relative viability of 0.579. Work on RERF-LC-KJ yielded a relative viability of 0.73. Cell Line NCI-H358 has a relative viability of 0.912. NCI-H650 gave a relative viability of 1.15. PC-3 [JPC-3] showed a relative viability of 1.05.

The cell lines below were run with c1ccc2c(CCNc3ccc(Nc4ccncc4)cc3)c[nH]c2c1 [Serdemetan] + CC(=O)Nc1cccc(-n2c(=O)n(C3CC3)c(=O)c3c(Nc4ccc(I)cc4F)n(C)c(=O)c(C)c32)c1 [Trametinib] (partner 0.02 µM) in the same assay as above. Settings: first compound 0.04 µM.
In short: as §1
Work on NCI-H1975 yielded a relative viability of 0.403. RERF-LC-KJ showed a relative viability of 0.896. For NCI-H358, the relative viability was 0.135. In the case of NCI-H650, the relative viability is reported as 0.891. In the case of PC-3 [JPC-3], the relative viability is reported as 0.708.

Same assay, conditions: first compound 0.1265 µM
NCI-H1975 showed a relative viability of 0.381. RERF-LC-KJ was tested, and the relative viability was 0.874. For NCI-H358, the relative viability was 0.144. In the case of NCI-H650, the relative viability is reported as 0.937. With PC-3 [JPC-3] the relative viability was 0.634.

Same assay, conditions: first compound 0.4 µM
NCI-H1975 was tested, and the relative viability was 0.331. Work on RERF-LC-KJ yielded a relative viability of 0.898. NCI-H358 gave a relative viability of 0.12. NCI-H650 showed a relative viability of 0.986. Cell Line PC-3 [JPC-3] has a relative viability of 0.663.

Same assay, conditions: first compound 1.265 µM
NCI-H1975 was tested, and the relative viability was 0.305. RERF-LC-KJ gave a relative viability of 0.793. With NCI-H358 the relative viability was 0.0947. NCI-H650 gave a relative viability of 0.903. For PC-3 [JPC-3], the relative viability was 0.67.

Same assay, conditions: first compound 4 µM
NCI-H1975 gave a relative viability of 0.371. Cell Line RERF-LC-KJ has a relative viability of 0.778. NCI-H358 gave a relative viability of 0.109. For NCI-H650, the relative viability was 0.612. Cell Line PC-3 [JPC-3] has a relative viability of 0.684.

Each cell line was assayed with c1ccc2c(CCNc3ccc(Nc4ccncc4)cc3)c[nH]c2c1 [Serdemetan] + CCNC(=O)c1noc(-c2cc(C(C)C)c(O)cc2O)c1-c1ccc(CN2CCOCC2)cc1 [Luminespib] (partner 0.01 µM) in the same assay as above. Settings: first compound 0.04 µM.
In short: as §1
For NCI-H1975, the relative viability was 0.371. In the case of RERF-LC-KJ, the relative viability is reported as 1.43. NCI-H358 was tested, and the relative viability was 0.63. NCI-H650 was tested, and the relative viability was 0.659. In the case of PC-3 [JPC-3], the relative viability is reported as 0.651.

Same assay, conditions: first compound 0.1265 µM
For NCI-H1975, the relative viability was 0.393. With RERF-LC-KJ the relative viability was 1.16. NCI-H358 showed a relative viability of 0.351. NCI-H650 was tested, and the relative viability was 0.875. PC-3 [JPC-3] was tested, and the relative viability was 0.612.

Same assay, conditions: first compound 0.4 µM
NCI-H1975 showed a relative viability of 0.176. Work on RERF-LC-KJ yielded a relative viability of 1.17. With NCI-H358 the relative viability was 0.254. NCI-H650 was tested, and the relative viability was 0.732. PC-3 [JPC-3] showed a relative viability of 0.621.

Same assay, conditions: first compound 1.265 µM
NCI-H1975 showed a relative viability of 0.18. In the case of RERF-LC-KJ, the relative viability is reported as 1.1. NCI-H358 gave a relative viability of 0.465. NCI-H650 showed a relative viability of 0.576. PC-3 [JPC-3] gave a relative viability of 0.654.

Same assay, conditions: first compound 4 µM
NCI-H1975 was tested, and the relative viability was 0.17. RERF-LC-KJ was tested, and the relative viability was 1.12. With NCI-H358 the relative viability was 0.207. Cell Line NCI-H650 has a relative viability of 0.505. Work on PC-3 [JPC-3] yielded a relative viability of 0.494.

These cell lines were tested with c1ccc2c(CCNc3ccc(Nc4ccncc4)cc3)c[nH]c2c1 [Serdemetan] + C[C@]1(O)C[C@@H](c2nc(-c3ccc4ccc(-c5ccccc5)nc4c3)c3c(N)nccn32)C1 [Linsitinib] (partner 1 µM) in the same assay as above. Settings: first compound 0.04 µM.
In short: as §1
Work on NCI-H1975 yielded a relative viability of 1.01. RERF-LC-KJ showed a relative viability of 0.869. For NCI-H358, the relative viability was 0.672. NCI-H650 was tested, and the relative viability was 0.681. Work on PC-3 [JPC-3] yielded a relative viability of 0.92.

Same assay, conditions: first compound 0.1265 µM
With NCI-H1975 the relative viability was 1.04. In the case of RERF-LC-KJ, the relative viability is reported as 0.851. For NCI-H358, the relative viability was 0.781. With NCI-H650 the relative viability was 0.922. Work on PC-3 [JPC-3] yielded a relative viability of 0.972.

Same assay, conditions: first compound 0.4 µM
For NCI-H1975, the relative viability was 0.974. RERF-LC-KJ gave a relative viability of 0.857. NCI-H358 gave a relative viability of 0.679. NCI-H650 showed a relative viability of 0.883.

Same assay, conditions: first compound 1.265 µM
Work on NCI-H1975 yielded a relative viability of 0.985. Work on RERF-LC-KJ yielded a relative viability of 0.745. NCI-H358 gave a relative viability of 0.465. NCI-H650 was tested, and the relative viability was 0.737. PC-3 [JPC-3] was tested, and the relative viability was 0.919.

Same assay, conditions: first compound 4 µM
NCI-H1975 showed a relative viability of 1.19. RERF-LC-KJ showed a relative viability of 0.727. With NCI-H358 the relative viability was 0.651. With NCI-H650 the relative viability was 0.688. PC-3 [JPC-3] was tested, and the relative viability was 0.985.
